Assay results: ChEMBL document CHEMBL1201862, “PubChem BioAssay data set” (2004)
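How tested: cells in 96-well plates exposed to compound for 48 hours at five concentrations. At the GI50, growth is halved.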 Activity calls are given as the source filed them. Rule as the data show it: active = GI50 up to about 1.1 µM and inactive = higher.

Experiments:
Test in all cases: NCI-60 cell line screen, 48 h
Malme-3M = tested on: Malme-3M
OVCAR-3 = tested on: OVCAR-3
HCT-116 = tested on: HCT-116
COLO 205 = tested on: COLO 205
T47D = tested on: T47D
OVCAR-4 = tested on: OVCAR-4
OVCAR-8 = tested on: OVCAR-8
RPMI-8226 = tested on: RPMI-8226
SNB-19 = tested on: SNB-19
UACC-62 = tested on: UACC-62
NCI-H460 = tested on: NCI-H460
K562 = tested on: K562
U-251 = tested on: U-251
HT-29 = tested on: HT-29
LOX IMVI = tested on: LOX IMVI
IGROV-1 = tested on: IGROV-1
SK-MEL-5 = tested on: SK-MEL-5
M14 = tested on: M14
OVCAR-5 = tested on: OVCAR-5
CAKI-1 = tested on: CAKI-1

Row | SMILES | GI50 (Malme-3M) | GI50 (OVCAR-3) | GI50 (HCT-116) | GI50 (COLO 205) | GI50 (T47D) | GI50 (OVCAR-4) | GI50 (OVCAR-8) | GI50 (RPMI-8226) | GI50 (SNB-19) | GI50 (UACC-62) | GI50 (NCI-H460) | GI50 (K562) | GI50 (U-251) | GI50 (HT-29) | GI50 (LOX IMVI) | GI50 (IGROV-1) | GI50 (SK-MEL-5) | GI50 (M14) | GI50 (OVCAR-5) | GI50 (CAKI-1)
1 | Cc1cc2cc3c(Cl)c(CCCl)c(C)nc3cc2c(Cl)c1CCCl | 20.8 µM (inactive) | 13.5 µM (inactive) | 15.8 µM (inactive) | 16.6 µM (inactive) | 15.8 µM (inactive) | 18.1 µM (inactive) | 24.1 µM (inactive) | 14 µM (inactive) | 16.4 µM (inactive) | 15.6 µM (inactive) | 14.7 µM (inactive) | 17.4 µM (inactive) | 23.5 µM (inactive) | 18.5 µM (inactive) | 15.2 µM (inactive) | 26.2 µM (inactive) | 12.6 µM (inactive) |  |  | 
2 | CC[C@H](NC(=O)OC(C)(C)C)C(=O)NCP(=O)(OCc1ccc([N+](=O)[O-])cc1)OCc1ccc([N+](=O)[O-])cc1 | 53.5 µM (inactive) | 11 µM (inactive) | 27.7 µM (inactive) | 16.5 µM (inactive) | 63 µM (inactive) | 25.1 µM (inactive) | 30.5 µM (inactive) | 27.7 µM (inactive) | 43.1 µM (inactive) | 18.3 µM (inactive) | 27.8 µM (inactive) |  | 21.6 µM (inactive) | 17.7 µM (inactive) | 32.4 µM (inactive) | 38.5 µM (inactive) | 13.5 µM (inactive) | 30.9 µM (inactive) | 48.2 µM (inactive) | 43.2 µM (inactive)
3 | CCCCCCCCCC(O)CC(=O)c1c(O)cccc1O (centres undefined) | 16 µM (inactive) | 21.9 µM (inactive) | 20.1 µM (inactive) | 30.1 µM (inactive) | 25.2 µM (inactive) | 16.7 µM (inactive) | 18.8 µM (inactive) | 20.6 µM (inactive) | 29.9 µM (inactive) |  |  | 22.1 µM (inactive) | 36.7 µM (inactive) | 19.5 µM (inactive) | 20.4 µM (inactive) | 18.8 µM (inactive) | 19 µM (inactive) | 20.1 µM (inactive) | 18.7 µM (inactive) | 21.7 µM (inactive)
4 | NC(=S)N/N=C\CC(O)(C(F)(F)F)C(F)(F)F | > 10 µM (inactive) | > 10 µM (inactive) | > 10 µM (inactive) | > 10 µM (inactive) | > 10 µM (inactive) | > 10 µM (inactive) | > 10 µM (inactive) | > 10 µM (inactive) | > 10 µM (inactive) | > 10 µM (inactive) | > 10 µM (inactive) | > 10 µM (inactive) | > 10 µM (inactive) | > 10 µM (inactive) | > 10 µM (inactive) | > 10 µM (inactive) | > 10 µM (inactive) | > 10 µM (inactive) |  | > 10 µM (inactive)
5 | O=c1c2ccccc2[nH]n1Cc1ccccc1 |  | > 100 µM (inactive) | > 100 µM (inactive) | > 100 µM (inactive) | > 100 µM (inactive) | > 100 µM (inactive) | > 100 µM (inactive) | > 100 µM (inactive) | > 100 µM (inactive) | > 100 µM (inactive) | > 100 µM (inactive) | > 100 µM (inactive) | > 100 µM (inactive) | > 100 µM (inactive) | > 100 µM (inactive) | > 100 µM (inactive) | > 100 µM (inactive) | > 100 µM (inactive) | > 100 µM (inactive) | > 100 µM (inactive)
6 | Brc1ccc2c(c1)-c1nc3nc4c(cc3cc1CC2)CCc1ccc(Br)cc1-4 | > 100 µM (inactive) | > 100 µM (inactive) | > 100 µM (inactive) | > 100 µM (inactive) | > 100 µM (inactive) | 0.47 µM (active) | > 100 µM (inactive) | > 100 µM (inactive) | > 100 µM (inactive) |  | > 100 µM (inactive) | > 100 µM (inactive) | > 100 µM (inactive) |  | > 100 µM (inactive) | > 100 µM (inactive) | > 100 µM (inactive) | > 100 µM (inactive) | > 100 µM (inactive) | > 100 µM (inactive)
7 | O=C(NCCN1CCCCC1)c1ccc(Br)cc1 | > 100 µM (inactive) | > 100 µM (inactive) | > 100 µM (inactive) | > 100 µM (inactive) | > 100 µM (inactive) | > 100 µM (inactive) | > 100 µM (inactive) | > 100 µM (inactive) | > 100 µM (inactive) |  | > 100 µM (inactive) | > 100 µM (inactive) | > 100 µM (inactive) | > 100 µM (inactive) | > 100 µM (inactive) | > 100 µM (inactive) | > 100 µM (inactive) | > 100 µM (inactive) | > 100 µM (inactive) | > 100 µM (inactive)
8 | O=C(OCc1ccccc1)N1CCNCCNCC1 |  | > 100 µM (inactive) | > 100 µM (inactive) | > 100 µM (inactive) | > 100 µM (inactive) | > 100 µM (inactive) | > 100 µM (inactive) | > 100 µM (inactive) | > 100 µM (inactive) | > 100 µM (inactive) | > 100 µM (inactive) | > 100 µM (inactive) | > 100 µM (inactive) | > 100 µM (inactive) | > 100 µM (inactive) | > 100 µM (inactive) | > 100 µM (inactive) | > 100 µM (inactive) | > 100 µM (inactive) | > 100 µM (inactive)
9 | O=[N+]([O-])/C(C(Cl)=C(Cl)Cl)=C(/Nc1cccc2cccnc12)n1nnc2ccccc21 | 6.85 µM (inactive) | 8.18 µM (inactive) | 19.3 µM (inactive) | 17.3 µM (inactive) | 19 µM (inactive) | 17.2 µM (inactive) | 13.8 µM (inactive) | 24.5 µM (inactive) | 16.9 µM (inactive) |  | 31.3 µM (inactive) | 6.41 µM (inactive) |  | 17.7 µM (inactive) |  |  |  | 12.2 µM (inactive) | 21.6 µM (inactive) | 13.5 µM (inactive)
10 | NC1=Nc2ccccc2Sc2nc3ccccc3n21 | > 100 µM (inactive) | 8.02 µM (inactive) | 5.47 µM (inactive) | 7.8 µM (inactive) | 21.6 µM (inactive) | 7.85 µM (inactive) |  | 4.46 µM (inactive) | 50.1 µM (inactive) | 23.9 µM (inactive) | 17.2 µM (inactive) | 9.38 µM (inactive) | 5.9 µM (inactive) | 9.12 µM (inactive) | 18.9 µM (inactive) | 34.4 µM (inactive) | 5.4 µM (inactive) | 5.46 µM (inactive) | 8.15 µM (inactive) | 
11 | OC(c1ccc(C(F)(F)F)cc1)C(F)(F)c1nc2ccccc2o1 (centres undefined) |  |  | > 100 µM (inactive) | > 100 µM (inactive) | > 100 µM (inactive) | > 100 µM (inactive) | > 100 µM (inactive) | > 100 µM (inactive) | > 100 µM (inactive) | > 100 µM (inactive) | > 100 µM (inactive) | 56.8 µM (inactive) | > 100 µM (inactive) | > 100 µM (inactive) | > 100 µM (inactive) | > 100 µM (inactive) | > 100 µM (inactive) | > 100 µM (inactive) |  | > 100 µM (inactive)
12 | CC(=O)N1N=C(c2ccc3ccccc3c2O)CC1c1ccc(Cl)cc1Cl (centres undefined) | > 100 µM (inactive) | 15.6 µM (inactive) | 16.7 µM (inactive) | 28.3 µM (inactive) | 26.9 µM (inactive) | 33.1 µM (inactive) | 59 µM (inactive) | 17.3 µM (inactive) |  | > 100 µM (inactive) | 12.3 µM (inactive) | 7.69 µM (inactive) | 18.3 µM (inactive) | 28.7 µM (inactive) |  | 22.4 µM (inactive) | 33.7 µM (inactive) | 27.2 µM (inactive) | > 100 µM (inactive) | 22.6 µM (inactive)
13 | COc1cc(OCc2ccc3oc(=O)c(-c4ccccc4)nc3c2)cc(OC)c1OC | > 100 µM (inactive) | > 100 µM (inactive) | > 100 µM (inactive) | > 100 µM (inactive) | 38.9 µM (inactive) | > 100 µM (inactive) | > 100 µM (inactive) | > 100 µM (inactive) | > 100 µM (inactive) | > 100 µM (inactive) | > 100 µM (inactive) | > 100 µM (inactive) | > 100 µM (inactive) | > 100 µM (inactive) | > 100 µM (inactive) | > 100 µM (inactive) | > 100 µM (inactive) | > 100 µM (inactive) | > 100 µM (inactive) | 
14 | COc1cc(OC)c(OC)cc1/C=C1\C=Cc2ccccc21 | 23.1 µM (inactive) |  | 5.65 µM (inactive) | 7.96 µM (inactive) | 7.89 µM (inactive) |  | 31.7 µM (inactive) | 10.8 µM (inactive) | > 10 µM (inactive) |  | 10.3 µM (inactive) | 5.5 µM (inactive) | 9.12 µM (inactive) | 11.7 µM (inactive) | 13 µM (inactive) | 26.9 µM (inactive) | 11.1 µM (inactive) |  | 12.5 µM (inactive) | 
15 | COCn1c(C)c(C)c2c(=O)oc(=O)[nH]c21 | > 100 µM (inactive) |  | > 100 µM (inactive) | > 100 µM (inactive) | > 100 µM (inactive) | > 100 µM (inactive) | > 100 µM (inactive) | > 100 µM (inactive) | > 100 µM (inactive) | > 100 µM (inactive) | > 100 µM (inactive) | > 100 µM (inactive) | > 100 µM (inactive) | > 100 µM (inactive) | > 100 µM (inactive) | > 100 µM (inactive) | > 100 µM (inactive) | > 100 µM (inactive) | > 100 µM (inactive) | 8.24 µM (inactive)
